Measured values as given in patent publication US11925702B2, “Methods for extracting compound from ginseng, ginseng extract comprising the compound and composition for enhancing skin barrier comprising the same” (AMOREPACIFIC CORPORATION, priority 2022, dated 2024).

Assays:
Assay type in all cases: cell-based, human
Occludin (OCLN) gene = Occludin (OCLN) gene expression in NHEK by Taqman real-time PCR; conditions: isolated compound added to NHEK culture media, concentration series (FIG. 6)
Description: (§1) (1) Normal human epidermal keratinocytes (NHEK) were cultured in 6-well culture media. The anaerobic-naturally fermented ginseng extract of the preparation example and an unfermented fresh ginseng extract were respectively added to the NHEK media and cultured. After harvesting the cells on the 4th day, separating RNA therefrom, and synthesizing cDNA through RT-PCR (reverse transcriptional polymerase chain reaction), the synthesized cDNA was measured with respect to an expression level of the Filaggrin gene through Taqman real-time PCR, and the results are shown in FIG. 4.
(§2) (2) The compound represented by Chemical Formula 1-1, which was separated from the anaerobic-naturally fermented ginseng extract of the preparation example, was added to an NHEK culture media and treated in the same manner as in (1), and then measured with respect to each gene expression level of Filaggrin, Occludin, and ATP-binding cassette sub-family A member 12 (ATP-binding cassette transporter 12), and the results are shown in FIGS. 5 to 7.

Filaggrin (FLG) gene = Filaggrin (FLG) gene expression in NHEK by Taqman real-time PCR; conditions: isolated compound added to NHEK culture media, concentration series (FIG. 5)
Description: as §1, §2

[1] = test system: ATP-binding cassette sub-family A member 12 (ABCA12) gene; test: ABCA12 gene expression in NHEK by Taqman real-time PCR; conditions: isolated compound added to NHEK culture media, concentration series (FIG. 7)
Description: as §1, §2

CC(C)=CCC[C@](C)(O[C@@H]1O[C@H](CO[C@@H]2O[C@H](CO)[C@@H](O)[C@H](O)[C@H]2O)[C@@H](O)[C@H](O)[C@H]1O)[C@H]1CC[C@]2(C)[C@@H]1[C@H](O)C[C@@H]1[C@@]3(C)CC[C@H](O[C@@H]4O[C@H](CO)[C@@H](O)[C@H](O)[C@H]4O)C(C)(C)[C@@H]3CC[C@]12C [Chemical Formula 1-1]
gene expression level of Occludin (OCLN) (Occludin (OCLN) gene): increased, as a concentration thereof was increased
gene expression level of Filaggrin (FLG) (Filaggrin (FLG) gene): increased, as a concentration thereof was increased
gene expression level of ATP-binding cassette sub-family A member 12 (ABCA12) [1]: increased, as a concentration thereof was increased
